Experiments:
[1] = In vitro metabolic stability in liver microsomes (calculation of CL and Fmax); assay type: in vitro ADME, human; details: 1 μM, in vitro metabolic stability given as calculated maximal oral bioavailability
Procedure: Determination of in vitro metabolic stability in microsomes (including calculation of hepatic in vivo blood clearance (CL) and of maximal oral bioavailability (Fmax))
The metabolic assay was started shortly afterwards by adding the test compound to the incubation at a final volume of 1 mL. Organic solvent in the incubations was limited to ≤0.01% dimethylsulfoxide (DMSO) and ≤1% acetonitrile. […] Samples were frozen at −20° C. overnight, subsequently centrifuged for 15 minutes at 3000 rpm and the supernatant was analyzed with an Agilent 1200 HPLC-system with LCMS/MS detection.
The half-life of a test compound was determined from the concentration-time plot. From the half-life (kel: slope of concentration-time plot; half-life=ln 2/kel) the intrinsic clearances were calculated. Together with the additional parameters liver blood flow, specific liver weight and microsomal protein content the hepatic in vivo blood clearance (CL) and the maximal oral bioavailability (Fmax) were calculated for the different species.
(§1) Metabolic instability is often the main clearance mechanism of xenobiotica leading to a high CL and low bioavailability which may eventually result in a short half-life and a low exposure after oral administration. Thus, reducing the susceptibility of metabolic degradation usually leads to a more favourable pharmacokinetic profile. When using liver microsomes as incubation matrix main phase I metabolic reactions, typically oxidoreductive reactions by cytochrome P450 enzymes and flavin mono-oxygenases (FMO) and hydrolytic reactions by esterases/amidases/epoxidhydrolases, are described. When the incubation of the test compound is performed in a hepatocyte matrix all potential hepatic metabolic processes (phase I and phase II) are covered.

[2] = In vitro metabolic stability in rat hepatocytes; assay type: in vitro ADME; details: 1 μM, in vitro metabolic stability given as calculated maximal oral bioavailability
Procedure: Determination of in vitro metabolic stability in rat hepatocytes (including calculation of hepatic in vivo blood clearance (CL))
Hepatocytes from Han Wistar rats were isolated via a 2-step perfusion method. After perfusion, the liver was carefully removed from the rat: the liver capsule was opened and the hepatocytes were gently shaken out into a Petri dish with ice-cold Williams' medium E (WME). The resulting cell suspension was filtered through sterile gaze in 50 mL falcon tubes and centrifuged at 50×g for 3 min at room temperature. The cell pellet was resuspended in 30 mL WME and centrifuged through a Percoll® gradient for 2 times at 100×g. The hepatocytes were washed again with WME and resuspended in medium containing 5% FCS. Cell viability was determined by trypan blue exclusion.
The test compound was added to a final concentration of 1 μM. […] Samples were frozen at −20° C. overnight, subsequently centrifuged for 15 minutes at 3000 rpm and the supernatant was analyzed with an Agilent 1200 HPLC-system with LCMS/MS detection.
The half-life of a test compound was determined from the concentration-time plot. From the half-life (kel: slope of concentration-time plot; half-life=ln 2/kel) the intrinsic clearances were calculated. Together with the additional parameters liver blood flow, amount of liver cells in vivo and in vitro.
as §1

[3] = clinical PhII trials; side effect attributed to blockade of P2X2/3 channels; cited from earlier work
vaginal hyperalgesia = test: Rat dyspareunia model (visceromotor response to vaginal distension); assay type: in vivo; details: 15 mg/kg oral b.i.d. during 2 weeks, 5 and 6 weeks post-implantation
Excerpt: The visceromotor response (VMR) to vaginal distension was used in conscious animals as an objective measure of vaginal sensitivity. Briefly, animals in estrus phase were surgically implanted with biopsies of left uterine horn (3×3 mm) around alternate cascade mesenteric arteries that supply the small intestine (4 pieces) and on the wall of the distal colon (2 pieces). To measure VMR response, 2 Teflon-coated wire electrodes were sutured in the external oblique abdominal muscle, and tunneled subcutaneously to be exteriorized at the base of the neck for future access. On the day of VMR assessment, a lubricated small balloon (1 cm length) was inserted into the mid-vaginal canal. […] The electrodes were connected to an amplifier (Animal Bio Amp, ADInstruments), and the abdominal electromyographic signal was recorded using a data acquisition system (PowerLab, ADInstruments) for off-line analysis using LabChart version 7. The number of abdominal muscle contractions was counted manually for each 0.1 ml distension step, as an index of vaginal pain. […] Statistical Analysis All data were expressed as mean±standard deviation (s.d.), for the number (n) of measured rats per group. […] Planned comparison of means (matched-volume versus vehicle) was performed using a Bonferroni post hoc test, provided that a main effect was detected. […]

[4] = Human liver cytosol stability assay; assay type: in vitro ADME; details: 4 h incubation, 37° C.
Procedure: Human Liver Cytosol Stability Assay
Method description: Human liver cytosol (pooled, >30 male and female donors) was incubated with individual test compounds in order to compare the extent of depletion of test compound and formation of the respective oxidised metabolite. […] An incubation volume of 1000 μL was used. The test compound was added from a stock solution in acetonitrile at 1 or 10 μM concentration in the incubation. Incubations were performed at 37° C. Reactions were stopped at 0 h and 4 h after incubation by addition of 100 μL acetonitrile to 250 μL of incubation mixture. Precipitated proteins were removed by centrifugation at approximately 3000 rpm. The supernatants were stored at approximately −20° C. until they were analysed. […]
Data analysis: The depletion of the test compound and formation of the corresponding metabolites were determined by decrease or increase of the corresponding peak area in the chromatogram after UV detection at approximately 300 nm 4 h after incubation compared to that at 0 h after incubation. […]

CYP2C9 = CYP2C9 (Homo sapiens (Human), UniProt P11712); test: CYP inhibition assay, CYP2C9; assay type: in vitro ADME; details: human liver microsomes, probe diclofenac
Procedure: (§2) Method Description CYP Inhibition Assay
(§3) Data analysis: The CYP-mediated activities in the presence of inhibitors were expressed as percentages of the corresponding control values. A sigmoid-shaped curve was fitted to the data, and the enzyme inhibition parameter IC50 was calculated using a nonlinear least-squares regression analysis of the plot of percent control activity versus concentration of the test inhibitor.

CYP2C8 = CYP2C8 (Homo sapiens (Human), UniProt P10632); test: CYP inhibition assay, CYP2C8; assay type: in vitro ADME; details: human liver microsomes, probe amodiquine
Procedure: as §2, §3

CYP2D6 = CYP2D6 (Homo sapiens (Human), UniProt P10635); test: CYP inhibition assay, CYP2D6; assay type: in vitro ADME; details: human liver microsomes, probe dextromethorphan
Procedure: as §2, §3

CYP3A4 = CYP3A4 (Homo sapiens (Human), UniProt P08684); test: CYP inhibition assay, CYP3A4; assay type: in vitro ADME; details: human liver microsomes, probe midazolam
Procedure: as §2, §3

CYP1A2 = CYP1A2 (Homo sapiens (Human), UniProt P05177); test: CYP inhibition assay, CYP1A2
Procedure: as §2, §3

Sequence of CYP2C8 (P10632 whole entry): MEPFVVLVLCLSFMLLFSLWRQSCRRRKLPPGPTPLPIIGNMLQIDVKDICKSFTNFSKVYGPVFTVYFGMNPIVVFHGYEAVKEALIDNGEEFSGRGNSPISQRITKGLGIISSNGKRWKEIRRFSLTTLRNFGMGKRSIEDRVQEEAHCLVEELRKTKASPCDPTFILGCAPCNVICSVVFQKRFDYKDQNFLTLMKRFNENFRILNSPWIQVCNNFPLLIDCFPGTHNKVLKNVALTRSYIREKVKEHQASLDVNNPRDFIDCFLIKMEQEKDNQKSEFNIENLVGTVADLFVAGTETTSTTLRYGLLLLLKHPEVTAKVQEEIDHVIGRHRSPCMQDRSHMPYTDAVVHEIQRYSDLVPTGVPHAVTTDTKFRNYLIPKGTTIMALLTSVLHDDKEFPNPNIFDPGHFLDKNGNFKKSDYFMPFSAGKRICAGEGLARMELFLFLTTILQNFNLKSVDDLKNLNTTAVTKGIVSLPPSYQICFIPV
Sequence of CYP1A2 (P05177 whole entry): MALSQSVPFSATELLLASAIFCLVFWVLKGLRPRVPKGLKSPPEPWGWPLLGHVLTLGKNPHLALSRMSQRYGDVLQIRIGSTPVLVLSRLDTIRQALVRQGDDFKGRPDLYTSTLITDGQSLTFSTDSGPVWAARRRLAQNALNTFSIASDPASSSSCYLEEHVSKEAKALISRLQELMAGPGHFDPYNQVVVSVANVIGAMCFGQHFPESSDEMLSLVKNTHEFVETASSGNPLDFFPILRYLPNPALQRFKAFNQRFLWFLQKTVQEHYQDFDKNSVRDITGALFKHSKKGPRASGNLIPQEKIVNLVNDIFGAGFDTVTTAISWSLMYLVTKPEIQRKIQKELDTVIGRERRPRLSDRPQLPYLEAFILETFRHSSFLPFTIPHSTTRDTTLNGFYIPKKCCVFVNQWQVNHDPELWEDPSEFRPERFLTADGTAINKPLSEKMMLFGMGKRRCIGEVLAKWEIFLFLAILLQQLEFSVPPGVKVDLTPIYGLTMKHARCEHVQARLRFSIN
Sequence of CYP3A4 (P08684 whole entry): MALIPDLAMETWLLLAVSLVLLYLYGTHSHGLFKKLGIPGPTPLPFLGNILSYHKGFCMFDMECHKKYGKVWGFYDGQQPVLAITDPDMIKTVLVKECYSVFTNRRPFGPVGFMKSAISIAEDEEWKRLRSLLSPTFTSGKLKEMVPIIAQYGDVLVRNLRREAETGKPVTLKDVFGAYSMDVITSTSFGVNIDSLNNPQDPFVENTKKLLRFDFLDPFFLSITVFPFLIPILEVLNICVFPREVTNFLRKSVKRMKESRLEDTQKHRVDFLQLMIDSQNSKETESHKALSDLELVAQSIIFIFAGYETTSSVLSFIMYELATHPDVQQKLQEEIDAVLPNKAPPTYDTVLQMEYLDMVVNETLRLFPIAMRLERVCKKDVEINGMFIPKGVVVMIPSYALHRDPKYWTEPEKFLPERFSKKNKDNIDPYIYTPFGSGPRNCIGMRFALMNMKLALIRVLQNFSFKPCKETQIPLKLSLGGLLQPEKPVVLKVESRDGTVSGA
Sequence of CYP2D6 (P10635 whole entry): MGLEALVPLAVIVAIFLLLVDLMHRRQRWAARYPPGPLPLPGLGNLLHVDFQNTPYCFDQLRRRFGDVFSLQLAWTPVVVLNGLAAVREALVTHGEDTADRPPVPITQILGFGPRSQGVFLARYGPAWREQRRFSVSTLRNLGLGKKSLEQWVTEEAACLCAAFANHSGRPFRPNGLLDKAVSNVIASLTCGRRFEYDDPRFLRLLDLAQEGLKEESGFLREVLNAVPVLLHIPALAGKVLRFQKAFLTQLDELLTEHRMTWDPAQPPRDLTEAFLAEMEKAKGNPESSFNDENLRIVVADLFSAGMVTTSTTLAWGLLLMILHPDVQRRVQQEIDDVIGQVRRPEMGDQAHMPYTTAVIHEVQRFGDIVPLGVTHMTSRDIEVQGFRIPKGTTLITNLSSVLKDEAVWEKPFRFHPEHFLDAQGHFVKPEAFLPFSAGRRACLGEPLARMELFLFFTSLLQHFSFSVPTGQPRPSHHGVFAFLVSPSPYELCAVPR
Sequence of CYP2C9 (P11712 whole entry): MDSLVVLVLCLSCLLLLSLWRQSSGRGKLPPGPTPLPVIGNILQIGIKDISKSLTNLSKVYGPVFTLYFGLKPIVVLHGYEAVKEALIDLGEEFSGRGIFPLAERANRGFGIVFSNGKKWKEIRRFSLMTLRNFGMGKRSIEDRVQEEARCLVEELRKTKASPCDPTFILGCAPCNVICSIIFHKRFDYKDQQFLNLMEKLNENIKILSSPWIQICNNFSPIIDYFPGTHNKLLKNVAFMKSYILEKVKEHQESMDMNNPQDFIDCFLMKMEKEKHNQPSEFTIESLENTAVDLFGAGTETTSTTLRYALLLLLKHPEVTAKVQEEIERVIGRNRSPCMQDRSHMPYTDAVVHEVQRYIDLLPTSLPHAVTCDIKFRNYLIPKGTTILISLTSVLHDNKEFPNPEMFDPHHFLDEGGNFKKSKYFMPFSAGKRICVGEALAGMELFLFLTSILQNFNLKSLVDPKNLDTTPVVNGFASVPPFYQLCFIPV

Row | SMILES | Human liver microsome Fmax [1] [%] | Rat hepatocyte Fmax [2] [%] | also measured
1 | CCc1cnc(-c2cc(OC[C@H]3CN(C)CCO3)cc(C(=O)N[C@H](C)c3ccc(C(F)(F)F)nn3)c2)s1 [Example 419, 3-(5-ethyl-1,3-thiazol-2-yl)-5-{[(2R)-4-methylmorpholin-2-yl]methoxy}-N-{(1R)-1-[6-(trifluoromethyl)pyridazin-3-yl]ethyl}benzamide] | 74 | 51 | –
2 | COc1cc(C(C)C)c(Oc2cnc(N)nc2N)cc1S(N)(=O)=O [AF-219] | – | – | taste disturbances in treated subjects [3]: leads to taste disturbances
3 | Cc1cnc(-c2cc(OC(C)C(C)O)cc(C(=O)N[C@H](C)c3cnc(C(F)(F)F)nc3)c2)s1 (single isomer, unassigned) [Example 340] | 90 | 64 | –
4 | Cc1cnc(-c2cc(O[C@@H]3CCOC3)cc(C(=O)N[C@H](C)c3cnc(C(F)(F)F)nc3)c2)s1 [Example 11, 3-(5-Methyl-1,3-thiazol-2-yl)-5-[(3R)-tetrahydrofuran-3-yloxy]-N-{(1R)-1-[2-(trifluoromethyl)pyrimidin-5-yl]ethyl}benzamide] | 57 | 52 | Vaginal hyperalgesia compared to vehicle-treated animals (vaginal hyperalgesia): decreased vaginal hyperalgesia; Test compound turnover after 4 h [4]: 0.9%
5 | Cc1cnc(-c2cc(O[C@H]3CCOC3)cc(C(=O)N[C@H](C)c3cnc(C(F)(F)F)nc3)c2)s1 [Example 26, 3-(5-Methyl-1,3-thiazol-2-yl)-5-[(3S)-tetrahydrofuran-3-yloxy]-N-{(1R)-1-[2-(trifluoromethyl)pyrimidin-5-yl]ethyl}benzamide] | 67 | 56 | Test compound turnover after 4 h [4]: 0.9%
6 | Cc1cnc(-c2cc(OC(C)C(C)O)cc(C(=O)N[C@H](C)c3cnc(C(F)(F)F)nc3)c2)s1 (single isomer, unassigned) [Example 163] | 100 | 53 | –
7 | Cc1cnc(-c2cc(OC(C)C(C)O)cc(C(=O)N[C@H](C)c3cnc(C(F)(F)F)nc3)c2)s1 (single isomer, unassigned) [Example 339] | 94 | 52 | IC50 (CYP2C9): > 20 µM; IC50 (CYP2C8): > 20 µM; IC50 (CYP2D6): > 20 µM; IC50 (CYP3A4): > 20 µM; IC50 (CYP1A2): > 20 µM
8 | Cc1cnc(-c2cc(OC(C)C(C)O)cc(C(=O)N[C@H](C)c3ccc(C(F)(F)F)nn3)c2)s1 (single isomer, unassigned) [Example 183] | 74 | 43 | –

From patent publication US10472354B2, “1,3-thiazol-2-yl substituted benzamides” (Bayer Aktiengesellschaft, priority 2014, dated 2019)
